Positions of bridges follow the written chain, without caps; N, C: chain ends. Non-standard residues stand in square brackets, D forms with d. Residues, ends and D or L forms follow the SMILES beside them. NMeC = CN[C@@H](CS)C(=O)O; NMeA = CN[C@@H](C)C(=O)O; dAbu = CC[C@@H](N)C(=O)O; dNMeA = CN[C@H](C)C(=O)O; Abu = CC[C@H](N)C(=O)O; Nleu = CC(C)CNCC(=O)O; NEtG = CCNCC(=O)O
Assay: in vitro
Settings: PAMPA, pH 7.4, PAMPA Pe_avg

| Papp at 10 µM | Structure (SMILES) |
| --- | --- |
| 0.16 ×10⁻⁶ cm/s | CCOC(=O)[C@@H]1CSCC(=O)N[C@H](CC)C(=O)N(C)[C@@H](C)C(=O)N[C@H](CC(C)C)C(=O)N2CCC[C@@H]2C(=O)N(CC)CC(=O)N[C@H](CC(C)C)C(=O)N(C)[C@H](C)C(=O)N[C@@H](CC(C)C)C(=O)N1C [JF206_ADD_DDDD_Ethyl] ({CH2CO}-[dAbu][NMeA][dL][dP][NEtG][dL][dNMeA]L[NMeC]-OEt; thioether N-9) |
| 0.162 ×10⁻⁶ cm/s | CCOC(=O)[C@@H]1CSCC(=O)N[C@H](CC)C(=O)N(C)[C@@H](C)C(=O)N[C@H](CC(C)C)C(=O)N2CCC[C@@H]2C(=O)N(CC)CC(=O)N[C@H](CC(C)C)C(=O)N(C)[C@@H](C)C(=O)N[C@@H](CC(C)C)C(=O)N1C [JF206_ADD_DDDL_Ethyl] ({CH2CO}-[dAbu][NMeA][dL][dP][NEtG][dL][NMeA]L[NMeC]-OEt; thioether N-9) |
| 0.005 ×10⁻⁶ cm/s | CCOC(=O)[C@@H]1CSCC(=O)N[C@H](CC)C(=O)N(C)[C@@H](C)C(=O)N[C@H](CC(C)C)C(=O)N2CCC[C@@H]2C(=O)N(CC)CC(=O)N[C@@H](CC(C)C)C(=O)N(C)[C@H](C)C(=O)N[C@@H](CC(C)C)C(=O)N1C [JF206_ADD_DDLD_Ethyl] ({CH2CO}-[dAbu][NMeA][dL][dP][NEtG]L[dNMeA]L[NMeC]-OEt; thioether N-9) |
| 0.125 ×10⁻⁶ cm/s | CCOC(=O)[C@@H]1CSCC(=O)N[C@H](CC)C(=O)N(C)[C@@H](C)C(=O)N[C@H](CC(C)C)C(=O)N2CCC[C@@H]2C(=O)N(CC(C)C)CC(=O)N[C@@H](CC(C)C)C(=O)N(C)[C@H](C)C(=O)N[C@@H](CC(C)C)C(=O)N1C [JF206_ADD_DDLD_Isobutyl] ({CH2CO}-[dAbu][NMeA][dL][dP][Nleu]L[dNMeA]L[NMeC]-OEt; thioether N-9) |
| 0.118 ×10⁻⁶ cm/s | CCOC(=O)[C@@H]1CSCC(=O)N[C@H](CC)C(=O)N(C)[C@@H](C)C(=O)N[C@@H](CC(C)C)C(=O)N2CCC[C@@H]2C(=O)N(CC(C)C)CC(=O)N[C@H](CC(C)C)C(=O)N(C)[C@H](C)C(=O)N[C@@H](CC(C)C)C(=O)N1C [JF206_ADD_DLDD_Isobutyl] ({CH2CO}-[dAbu][NMeA]L[dP][Nleu][dL][dNMeA]L[NMeC]-OEt; thioether N-9) |
| 0.003 ×10⁻⁶ cm/s | CCOC(=O)[C@@H]1CSCC(=O)N[C@H](CC)C(=O)N(C)[C@@H](C)C(=O)N[C@@H](CC(C)C)C(=O)N2CCC[C@@H]2C(=O)N(CC)CC(=O)N[C@H](CC(C)C)C(=O)N(C)[C@@H](C)C(=O)N[C@@H](CC(C)C)C(=O)N1C [JF206_ADD_DLDL_Ethyl] ({CH2CO}-[dAbu][NMeA]L[dP][NEtG][dL][NMeA]L[NMeC]-OEt; thioether N-9) |
| 0.173 ×10⁻⁶ cm/s | CCOC(=O)[C@@H]1CSCC(=O)N[C@H](CC)C(=O)N(C)[C@@H](C)C(=O)N[C@@H](CC(C)C)C(=O)N2CCC[C@@H]2C(=O)N(CC(C)C)CC(=O)N[C@H](CC(C)C)C(=O)N(C)[C@@H](C)C(=O)N[C@@H](CC(C)C)C(=O)N1C [JF206_ADD_DLDL_Isobutyl] ({CH2CO}-[dAbu][NMeA]L[dP][Nleu][dL][NMeA]L[NMeC]-OEt; thioether N-9) |
| 0.174 ×10⁻⁶ cm/s | CCOC(=O)[C@@H]1CSCC(=O)N[C@H](CC)C(=O)N(C)[C@@H](C)C(=O)N[C@@H](CC(C)C)C(=O)N2CCC[C@@H]2C(=O)N(CC)CC(=O)N[C@@H](CC(C)C)C(=O)N(C)[C@H](C)C(=O)N[C@@H](CC(C)C)C(=O)N1C [JF206_ADD_DLLD_Ethyl] ({CH2CO}-[dAbu][NMeA]L[dP][NEtG]L[dNMeA]L[NMeC]-OEt; thioether N-9) |
| 0.561 ×10⁻⁶ cm/s | CCOC(=O)[C@@H]1CSCC(=O)N[C@H](CC)C(=O)N(C)[C@@H](C)C(=O)N[C@@H](CC(C)C)C(=O)N2CCC[C@@H]2C(=O)N(CC)CC(=O)N[C@@H](CC(C)C)C(=O)N(C)[C@@H](C)C(=O)N[C@@H](CC(C)C)C(=O)N1C [JF206_ADD_DLLL_Ethyl] ({CH2CO}-[dAbu][NMeA]L[dP][NEtG]L[NMeA]L[NMeC]-OEt; thioether N-9) |
| 0.688 ×10⁻⁶ cm/s | CCOC(=O)[C@@H]1CSCC(=O)N[C@H](CC)C(=O)N(C)[C@@H](C)C(=O)N[C@@H](CC(C)C)C(=O)N2CCC[C@@H]2C(=O)N(CC(C)C)CC(=O)N[C@@H](CC(C)C)C(=O)N(C)[C@@H](C)C(=O)N[C@@H](CC(C)C)C(=O)N1C [JF206_ADD_DLLL_Isobutyl] ({CH2CO}-[dAbu][NMeA]L[dP][Nleu]L[NMeA]L[NMeC]-OEt; thioether N-9) |
| 0.177 ×10⁻⁶ cm/s | CCOC(=O)[C@@H]1CSCC(=O)N[C@@H](CC)C(=O)N(C)[C@@H](C)C(=O)N[C@H](CC(C)C)C(=O)N2CCC[C@@H]2C(=O)N(CC)CC(=O)N[C@H](CC(C)C)C(=O)N(C)[C@H](C)C(=O)N[C@@H](CC(C)C)C(=O)N1C [JF206_ADL_LDDD_Ethyl] ({CH2CO}-[Abu][NMeA][dL][dP][NEtG][dL][dNMeA]L[NMeC]-OEt; thioether N-9) |
| 0.315 ×10⁻⁶ cm/s | CCOC(=O)[C@@H]1CSCC(=O)N[C@@H](CC)C(=O)N(C)[C@@H](C)C(=O)N[C@H](CC(C)C)C(=O)N2CCC[C@@H]2C(=O)N(CC)CC(=O)N[C@H](CC(C)C)C(=O)N(C)[C@@H](C)C(=O)N[C@@H](CC(C)C)C(=O)N1C [JF206_ADL_LDDL_Ethyl] ({CH2CO}-[Abu][NMeA][dL][dP][NEtG][dL][NMeA]L[NMeC]-OEt; thioether N-9) |
| 0.013 ×10⁻⁶ cm/s | CCOC(=O)[C@@H]1CSCC(=O)N[C@@H](CC)C(=O)N(C)[C@@H](C)C(=O)N[C@H](CC(C)C)C(=O)N2CCC[C@@H]2C(=O)N(CC)CC(=O)N[C@@H](CC(C)C)C(=O)N(C)[C@@H](C)C(=O)N[C@@H](CC(C)C)C(=O)N1C [JF206_ADL_LDLL_Ethyl] ({CH2CO}-[Abu][NMeA][dL][dP][NEtG]L[NMeA]L[NMeC]-OEt; thioether N-9) |
| 0.018 ×10⁻⁶ cm/s | CCOC(=O)[C@@H]1CSCC(=O)N[C@@H](CC)C(=O)N(C)[C@@H](C)C(=O)N[C@@H](CC(C)C)C(=O)N2CCC[C@@H]2C(=O)N(CC)CC(=O)N[C@H](CC(C)C)C(=O)N(C)[C@H](C)C(=O)N[C@@H](CC(C)C)C(=O)N1C [JF206_ADL_LLDD_Ethyl] ({CH2CO}-[Abu][NMeA]L[dP][NEtG][dL][dNMeA]L[NMeC]-OEt; thioether N-9) |
| 0.286 ×10⁻⁶ cm/s | CCOC(=O)[C@@H]1CSCC(=O)N[C@@H](CC)C(=O)N(C)[C@@H](C)C(=O)N[C@@H](CC(C)C)C(=O)N2CCC[C@@H]2C(=O)N(CC(C)C)CC(=O)N[C@H](CC(C)C)C(=O)N(C)[C@H](C)C(=O)N[C@@H](CC(C)C)C(=O)N1C [JF206_ADL_LLDD_Isobutyl] ({CH2CO}-[Abu][NMeA]L[dP][Nleu][dL][dNMeA]L[NMeC]-OEt; thioether N-9) |
| 0.011 ×10⁻⁶ cm/s | CCOC(=O)[C@@H]1CSCC(=O)N[C@@H](CC)C(=O)N(C)[C@@H](C)C(=O)N[C@@H](CC(C)C)C(=O)N2CCC[C@@H]2C(=O)N(CC)CC(=O)N[C@H](CC(C)C)C(=O)N(C)[C@@H](C)C(=O)N[C@@H](CC(C)C)C(=O)N1C [JF206_ADL_LLDL_Ethyl] ({CH2CO}-[Abu][NMeA]L[dP][NEtG][dL][NMeA]L[NMeC]-OEt; thioether N-9) |
| 0.229 ×10⁻⁶ cm/s | CCOC(=O)[C@@H]1CSCC(=O)N[C@@H](CC)C(=O)N(C)[C@@H](C)C(=O)N[C@@H](CC(C)C)C(=O)N2CCC[C@@H]2C(=O)N(CC(C)C)CC(=O)N[C@H](CC(C)C)C(=O)N(C)[C@@H](C)C(=O)N[C@@H](CC(C)C)C(=O)N1C [JF206_ADL_LLDL_Isobutyl] ({CH2CO}-[Abu][NMeA]L[dP][Nleu][dL][NMeA]L[NMeC]-OEt; thioether N-9) |
| 0.326 ×10⁻⁶ cm/s | CCOC(=O)[C@@H]1CSCC(=O)N[C@@H](CC)C(=O)N(C)[C@@H](C)C(=O)N[C@@H](CC(C)C)C(=O)N2CCC[C@@H]2C(=O)N(CC)CC(=O)N[C@@H](CC(C)C)C(=O)N(C)[C@H](C)C(=O)N[C@@H](CC(C)C)C(=O)N1C [JF206_ADL_LLLD_Ethyl] ({CH2CO}-[Abu][NMeA]L[dP][NEtG]L[dNMeA]L[NMeC]-OEt; thioether N-9) |
| 0.194 ×10⁻⁶ cm/s | CCOC(=O)[C@@H]1CSCC(=O)N[C@H](CC)C(=O)N(C)[C@@H](C)C(=O)N[C@H](CC(C)C)C(=O)N2CCC[C@H]2C(=O)N(CC)CC(=O)N[C@H](CC(C)C)C(=O)N(C)[C@H](C)C(=O)N[C@@H](CC(C)C)C(=O)N1C [JF206_ALD_DDDD_Ethyl] ({CH2CO}-[dAbu][NMeA][dL]P[NEtG][dL][dNMeA]L[NMeC]-OEt; thioether N-9) |
| 0.18 ×10⁻⁶ cm/s | CCOC(=O)[C@@H]1CSCC(=O)N[C@H](CC)C(=O)N(C)[C@@H](C)C(=O)N[C@H](CC(C)C)C(=O)N2CCC[C@H]2C(=O)N(CC)CC(=O)N[C@H](CC(C)C)C(=O)N(C)[C@@H](C)C(=O)N[C@@H](CC(C)C)C(=O)N1C [JF206_ALD_DDDL_Ethyl] ({CH2CO}-[dAbu][NMeA][dL]P[NEtG][dL][NMeA]L[NMeC]-OEt; thioether N-9) |
| 0.556 ×10⁻⁶ cm/s | CCOC(=O)[C@@H]1CSCC(=O)N[C@H](CC)C(=O)N(C)[C@@H](C)C(=O)N[C@H](CC(C)C)C(=O)N2CCC[C@H]2C(=O)N(CC(C)C)CC(=O)N[C@H](CC(C)C)C(=O)N(C)[C@@H](C)C(=O)N[C@@H](CC(C)C)C(=O)N1C [JF206_ALD_DDDL_Isobutyl] ({CH2CO}-[dAbu][NMeA][dL]P[Nleu][dL][NMeA]L[NMeC]-OEt; thioether N-9) |
| 0.007 ×10⁻⁶ cm/s | CCOC(=O)[C@@H]1CSCC(=O)N[C@H](CC)C(=O)N(C)[C@@H](C)C(=O)N[C@H](CC(C)C)C(=O)N2CCC[C@H]2C(=O)N(CC)CC(=O)N[C@@H](CC(C)C)C(=O)N(C)[C@H](C)C(=O)N[C@@H](CC(C)C)C(=O)N1C [JF206_ALD_DDLD_Ethyl] ({CH2CO}-[dAbu][NMeA][dL]P[NEtG]L[dNMeA]L[NMeC]-OEt; thioether N-9) |
| 0.063 ×10⁻⁶ cm/s | CCOC(=O)[C@@H]1CSCC(=O)N[C@H](CC)C(=O)N(C)[C@@H](C)C(=O)N[C@H](CC(C)C)C(=O)N2CCC[C@H]2C(=O)N(CC(C)C)CC(=O)N[C@@H](CC(C)C)C(=O)N(C)[C@H](C)C(=O)N[C@@H](CC(C)C)C(=O)N1C [JF206_ALD_DDLD_Isobutyl] ({CH2CO}-[dAbu][NMeA][dL]P[Nleu]L[dNMeA]L[NMeC]-OEt; thioether N-9) |
| 0.00548 ×10⁻⁶ cm/s | CCOC(=O)[C@@H]1CSCC(=O)N[C@H](CC)C(=O)N(C)[C@@H](C)C(=O)N[C@H](CC(C)C)C(=O)N2CCC[C@H]2C(=O)N(CC)CC(=O)N[C@@H](CC(C)C)C(=O)N(C)[C@@H](C)C(=O)N[C@@H](CC(C)C)C(=O)N1C [JF206_ALD_DDLL_Ethyl] ({CH2CO}-[dAbu][NMeA][dL]P[NEtG]L[NMeA]L[NMeC]-OEt; thioether N-9) |
